The nature of this assay: Inhibition of Escherichia coli heptosyltransferase Waac.

In general, IC50 refers to the concentration needed to halve the response being measured. Compound `CC1=NN(c2cccc(C(=O)O)c2)C(=O)/C1=C\c1ccc(-c2ccc(C(=O)O)c(C)c2)o1` gave an IC50 of 31 µM. The compound `CC1=NN(c2ccc(C(=O)O)cc2)C(=O)/C1=C\c1ccc(-c2ccccc2)o1` yielded an IC50 of 55 µM.

Take `CC1=NN(c2cccc(C)c2)C(=O)/C1=C\c1ccc(-c2cccc(C(=O)O)c2)o1` (mixture of isomers): the half-inhibitory concentration (IC50) is greater than 100 µM.

With `COC(=O)c1cccc(N2N=C(C)/C(=C/c3ccc(-c4cccc(C(=O)O)c4)o3)C2=O)c1` (mixture of isomers), the IC50 is greater than 100 µM.

`CC1=NN(c2cccc(C(=O)O)c2)C(=O)/C1=C\c1ccc(-c2ccc(S(N)(=O)=O)cc2)o1` (mixture of isomers) gave an IC50 greater than 100 µM. Take `CC1=NN(c2ccc(C(=O)O)cc2)C(=O)/C1=C\c1ccc(-c2cccc(C(N)=O)c2)o1` (mixture of isomers): inhibition was half-maximal at 18 µM (IC50). In the case of `COC(=O)c1cccc(-c2ccc(/C=C3\C(=O)N(c4cccc(C(=O)O)c4)N=C3C)o2)c1` (mixture of isomers) it was 49 µM. As for `CC(=O)c1cccc(-c2ccc(/C=C3\C(=O)N(c4cccc(C(=O)O)c4)N=C3C)o2)c1` (mixture of isomers), the IC50 was 15 µM. In turn, `CC1=NN(c2cccc(C(=O)O)c2)C(=O)/C1=C\c1ccc(-c2ccc(Cl)c(C(=O)O)c2)o1` (mixture of isomers) returned an IC50 of 1 µM. Consider `CC1=NN(c2cccc(C(=O)O)c2)C(=O)/C1=C\c1ccc(-c2ccc(C(=O)O)cc2)o1`, for which the IC50 came to 3 µM. The compound `CC1=NN(c2ccc(C(=O)O)cc2)C(=O)/C1=C\c1ccc(-c2ccc(Cl)c(C(=O)O)c2)o1` came in with a concentration for half-maximal inhibition (IC50) of 3.1 µM. `CC1=NN(c2ccccc2)C(=O)/C1=C\c1ccc(-c2ccc(Cl)c(C(=O)O)c2)o1` (mixture of isomers) displayed an IC50 greater than 100 µM.

`CC1=NN(c2ccc(C(=O)O)cc2)C(=O)/C1=C\c1ccc(-c2ccc(C(=O)O)cc2)o1` (mixture of isomers) yielded an IC50 of 51 µM. Turning to `CC1=NN(c2cccc(C(=O)O)c2)C(=O)/C1=C\c1ccc(-c2cccc(C(=O)O)c2)o1` (mixture of isomers), inhibition was half-maximal at 2 µM (IC50).

The values above are taken from ChEMBL document CHEMBL1155053, “Discovery of new Gram-negative antivirulence drugs: structure and properties of novel E. coli WaaC inhibitors” (Bioorg Med Chem Lett, 2008).
